Reference: patent US10188633B2, “Identification of small molecules that facilitate therapeutic exon skipping” (The Regents of the University of California, priority 2011, dated 2019)
“And” between values parts separate entries of the source, which are not always exact repeats. Identical values can stand only once. Like-named read-outs stand apart in the source and are kept apart here.

System: human DMD exon 50 GFP based reporter
Test: BioMol high throughput screen in Ex50-GFP reporter C2C12 myoblasts, with or without AON6
Type: cell-based, mouse
Conditions: for Average Fluorescence (n = 3): average of 3 replicate plates
Description: Small molecule libraries were screened for exon skipping promoting activity in C2C12 myoblasts expressing a human DMD exon 50 GFP based reporter. […] In the reporter cells, successful skipping of DMD exon 50 creates in-frame GFP expression. Number of cells that were fluorescing was quantified using a high content cell imager in 384 well plate format. Fluorescence was normalized by subtracting the average fluorescence value of the carrier (DMSO) controls. Fluorescence readouts are plotted for the BioMol library screen both with (+AO) and without (−AO) from Source Plate 1 (containing the Orphan Ligand, Ion Channel, Enzyme Inhibitor, and Endocannabanoid libraries, n=300). Each point for the DMSO controls, all compounds, and the Top 5% from Source Plate 1 (n=15) represents the average normalized fluorescence of 6 replicates in the −AO screen and 3 replicates in the +AO screen. […] Individual points for dantrolene are plotted with the bold horizontal line indicating the median. The short horizontal lines interspersed among the data points indicate 1, 2, and 3 standard deviations away from the DMSO treatment mean fluorescence.
In contrast to prior screens aimed at identifying small molecules which impact exon skipping, our screen is unique at least because it relies on robust quantitation of a skipping reporter in the context of a muscle lineage cell in the presence and absence of suboptimal AO. These screens were performed using a mouse muscle cell line (C2C12) expressing a human DMD exon 50 GFP based reporter selected to minimize experimental variation and sensitivity in the context of an automated and quantitative fluorescent scanning system.
AO was added prior to small molecule incubation in an effort to identify molecules that facilitate AO skipping rather than AO delivery. The fluorescence induced by each compound was normalized to a vehicle controls per plate to correct for plate to plate variability. Fluorescence was averaged across replicate plates (n=6 without AO screen, n=3 with AO screen). Compounds were rank ordered based on average intensity of fluorescence and difference between the without AO and with AO screen (FIG. 1 and Table 2).
A stable clone was generated from C2C12 cells transfected with a human exon 50 DMD GFP reporter (ex50GFP) that has been previously described. Ex50GFP reporter myoblasts were seeded into uncoated 384 well plates and were incubated for 4 hours either with or without 300 nM of 2′-O-methyl phosphorothioate AON6 [5′[…] 3′ (SEQ ID NO:1)] targeting the human exon 50 splice donor site. Cells were transfected with AON6 using the FUGENE (Roche) transfection reagent per manufacturer's instructions. Following AON6 incubation, each component of the BioMol library (n=503) was screened at 10 uM concentration with a final concentration of the DMSO carrier being 1%. Forty-eight hours later fluorescence was measured using the MicroXpress high content imager and analyzed using MetaXpress. Immediately preceding imaging, DNA was stained with Hoescht for 30 min. The BioMol screen without AO (−AO) was performed in 6 replicates, and the with AO (+AO) screen was performed in 3 replicates. For the screen analysis raw fluorescence values were normalized to carrier controls present on each plate by subtracting the values. Negative fluorescence values were set to 0. The data from each compound were averaged from all replicates. For secondary screening by 12 or 16 point dose response, Ex50GFP myoblasts or C2C12 cells without the reporter were seeded on uncoated 384 well plates. A sub-optimal dose of AON6 targeting DMD exon 50 was added for 4 hours.

[1] = Without AON6 screen, compound 10 uM, 48 h, normalized to DMSO carrier controls
[2] = Without AON6 screen, compound 10 uM, average of 6 replicate plates
[3] = With AON6 screen, compound 10 uM, 48 h, fluorescence normalized by subtracting DMSO carrier controls
[4] = With AON6 screen, compound 10 uM, 48 h, normalized to DMSO carrier controls
[5] = With AON6 screen, compound 10 uM

## COC(=O)C1=C(C)NC(C)=C(C(=O)OCCCN2CCC(c3ccccc3)(c3ccccc3)CC2)[C@H]1c1cccc([N+](=O)[O-])c1 [NIGULDIPINE]
  Average Fluorescence (n = 6): 4.12
  Fluorescence Plate 1: 5.07
  Fluorescence Plate 2: 1.34
  Fluorescence Plate 3: 3.34
  Fluorescence Plate 4: 8.06
  Fluorescence Plate 5: 6.06
  Fluorescence Plate 6: 0.84

## C[C@@]12C(=O)OC(=O)[C@]1(C)[C@H]1CC[C@@H]2O1 [CANTHARIDIN]
[1]
  Fluorescence Plate 1: 11.40
  Fluorescence Plate 2: −1.04
  Fluorescence Plate 3: 0.63
  Fluorescence Plate 4: 5.55
  Fluorescence Plate 5: 4.34
  Fluorescence Plate 6: 4.45
[2]
  Average Fluorescence (n = 6): 4.22

## Cn1cc(C2=C(c3cn(CCCSC(=N)N)c4ccccc34)C(=O)NC2=O)c2ccccc21 [Ro 31-8220]
[1]
  Fluorescence Plate 1: 17.56
  Fluorescence Plate 2: 50.61
  Fluorescence Plate 3: 46.79
  Fluorescence Plate 4: 38.49
  Fluorescence Plate 5: 31.21
  Fluorescence Plate 6: 34.94
[2]
  Average Fluorescence (n = 6): 36.60

## NCCNS(=O)(=O)c1cccc2cnccc12 [H-9]
[3]
  Fluorescence Plate 1: 18.09
[4]
  Fluorescence Plate 2: 19.17
  Fluorescence Plate 3: 13.25
[5]
  Average Fluorescence (n = 3): 16.84

## CCCCC/C=C\C/C=C\C/C=C\C/C=C\CCCCCC(=O)NCCc1ccc(O)c(O)c1 [Docosatetra-7Z,10Z,13Z,16Z-enoyl dopamine]
  Average Fluorescence (n = 6): 4.71
  Fluorescence Plate 1: −1.65
  Fluorescence Plate 2: 5.21
  Fluorescence Plate 3: 7.47
  Fluorescence Plate 4: 2.30
  Fluorescence Plate 5: 9.50
  Fluorescence Plate 6: 5.44

## CC(C)(C)c1cc(/C=C(\C#N)C(N)=S)cc(C(C)(C)C)c1O [AG-879]
[1]
  Fluorescence Plate 1: 1.23
  Fluorescence Plate 2: 3.24
  Fluorescence Plate 3: 3.46
  Fluorescence Plate 4: 6.94
  Fluorescence Plate 5: 8.93
  Fluorescence Plate 6: 2.06
[2]
  Average Fluorescence (n = 6): 4.31

## CCN(CC)CCNC(=O)c1ccc(N)cc1 [PROCAINAMIDE]
[3]
  Fluorescence Plate 1: 13.80
[4]
  Fluorescence Plate 2: 19.66
  Fluorescence Plate 3: 20.81
[5]
  Average Fluorescence (n = 3): 18.09

## N=C(NCc1ccc(Cl)c(Cl)c1)NC(=O)c1nc(Cl)c(N)nc1N [DICHLOROBENZAMIL]
[1]
  Fluorescence Plate 1: 22.19
  Fluorescence Plate 2: 15.01
  Fluorescence Plate 3: 13.67
  Fluorescence Plate 4: 4.78
  Fluorescence Plate 5: 7.44
  Fluorescence Plate 6: 6.66
[2]
  Average Fluorescence (n = 6): 11.63

## N#CC(=C(N)Sc1ccccc1N)C(C#N)=C(N)Sc1ccccc1N [U-0126]
[3]
  Fluorescence Plate 1: 17.87
[4]
  Fluorescence Plate 2: 35.65
  Fluorescence Plate 3: 16.65
[5]
  Average Fluorescence (n = 3): 23.39

## COc1ccc2cc1Oc1ccc(cc1)C[C@H]1c3cc(c(OC)cc3CCN1C)Oc1c(OC)c(OC)cc3c1[C@H](C2)N(C)CC3 [TETRANDRINE]
[1]
  Fluorescence Plate 1: 3.15
  Fluorescence Plate 2: 2.41
  Fluorescence Plate 3: 5.39
  Fluorescence Plate 4: 4.64
  Fluorescence Plate 5: 5.03
  Fluorescence Plate 6: 6.64
[2]
  Average Fluorescence (n = 6): 4.54

## N#C/C(=C\c1ccc(O)c(O)c1)C(N)=O [TYRPHOSTIN 46]
[3]
  Fluorescence Plate 1: 8.61
[4]
  Fluorescence Plate 2: 30.70
  Fluorescence Plate 3: 14.09
[5]
  Average Fluorescence (n = 3): 17.80

## COc1cc(/C=C(\C#N)C(N)=O)cc(CSc2nc3ccccc3s2)c1O [AG-825]
[3]
  Fluorescence Plate 1: 17.24
[4]
  Fluorescence Plate 2: 23.38
  Fluorescence Plate 3: 11.53
[5]
  Average Fluorescence (n = 3): 17.38

## CC(N/C(=N\C#N)Nc1ccncc1)C(C)(C)C (centres unmarked)
[3]
  Fluorescence Plate 1: 15.64
[4]
  Fluorescence Plate 2: 27.20
  Fluorescence Plate 3: 11.56
[5]
  Average Fluorescence (n = 3): 18.13

## COc1ccc2c3c([nH]c2c1)C(C)=NCC3.Cl [HARMALINE HCl]
[3]
  Fluorescence Plate 1: 15.00
[4]
  Fluorescence Plate 2: 42.55
  Fluorescence Plate 3: 0.22
[5]
  Average Fluorescence (n = 3): 19.26
[1]
  Fluorescence Plate 1: 31.97
  Fluorescence Plate 2: 27.56
  Fluorescence Plate 3: 27.06
  Fluorescence Plate 4: 22.50
  Fluorescence Plate 5: 16.09
  Fluorescence Plate 6: 19.75
[2]
  Average Fluorescence (n = 6): 24.15

## N#C/C(=C/c1ccc(O)c(O)c1)C(=O)NCc1ccccc1 [AG-490]
[3]
  Fluorescence Plate 1: 7.17
[4]
  Fluorescence Plate 2: 30.27
  Fluorescence Plate 3: 13.54
[5]
  Average Fluorescence (n = 3): 16.99

## O=Cc1c2c(cc3c1=Nc1ccccc1-3)=Nc1ccccc1-2 [6-FORMYLINDOLO [3,2-b] CARBAZOLE]
[3]
  Fluorescence Plate 1: 30.05
[4]
  Fluorescence Plate 2: 30.08
  Fluorescence Plate 3: 32.59
[5]
  Average Fluorescence (n = 3): 30.90

## CC(n1cc(C[C@H](N)C(=O)O)c2ccccc21)n1cc(C[C@H](N)C(=O)O)c2ccccc21
[3]
  Fluorescence Plate 1: 20.72
[4]
  Fluorescence Plate 2: 11.15
  Fluorescence Plate 3: 22.18
[5]
  Average Fluorescence (n = 3): 18.02

## COC[C@H]1OC(=O)c2coc3c2[C@@]1(C)C1=C(C3=O)[C@@H]2CCC(=O)[C@@]2(C)C[C@H]1OC(C)=O [WORTMANNIN]
[1]
  Fluorescence Plate 1: 4.99
  Fluorescence Plate 2: 3.07
  Fluorescence Plate 3: 4.23
  Fluorescence Plate 4: 5.92
  Fluorescence Plate 5: 6.44
  Fluorescence Plate 6: 3.78
[2]
  Average Fluorescence (n = 6): 4.74

## CCCCCCCC/C=C\CCCCCCCC(=O)NCCc1ccc(O)c(O)c1 [Oleoyl dopamine]
[1]
  Fluorescence Plate 1: 2.78
  Fluorescence Plate 2: 1.51
  Fluorescence Plate 3: 12.34
  Fluorescence Plate 4: 3.21
  Fluorescence Plate 5: 3.30
  Fluorescence Plate 6: 1.32
[2]
  Average Fluorescence (n = 6): 4.08

## INDIRUBIN
[1]
  Fluorescence Plate 3: 6.43 and 6.44
  Fluorescence Plate 5: 3.42 and 6.60
[2]
  Average Fluorescence (n = 6): 17.88 and 8.26

## N#C/C(=C\c1ccc(O)c(O)c1)C(=O)Nc1ccccc1 [AG-494]
[3]
  Fluorescence Plate 1: 19.38
[4]
  Fluorescence Plate 2: 25.36
  Fluorescence Plate 3: 25.25
[5]
  Average Fluorescence (n = 3): 23.33
[1]
  Fluorescence Plate 1: 5.92
  Fluorescence Plate 2: 1.23
  Fluorescence Plate 3: 1.65
  Fluorescence Plate 4: 7.58
  Fluorescence Plate 5: 3.54
  Fluorescence Plate 6: 5.26
[2]
  Average Fluorescence (n = 6): 4.20

## Nc1ncnc2c1c(I)cn2[C@@H]1O[C@H](CO)C(O)C1O (some centres unmarked) [5-IODOTUBERCIDIN]
[1]
  Fluorescence Plate 1: -0.41
  Fluorescence Plate 2: 6.65
  Fluorescence Plate 3: 9.13
  Fluorescence Plate 4: 18.27
  Fluorescence Plate 5: 30.70
  Fluorescence Plate 6: 6.10
[2]
  Average Fluorescence (n = 6): 11.74
